Among the data in patent publication US20220046923A1, “HERBICIDAL CINNOLINIUM COMPOUNDS” (SYNGENTA CROP PROTECTION AG, priority 2018, published 2022) are pest or weed control values, retold here.

What all share (experiment): Post-emergence efficacy, glasshouse spray test
Holding throughout (format): in vivo

For test [1], the system named is Ipomoea hederacea (IPOHE). The following applies: Ipomoea hederacea, post-emergence, 312 h; application rate 1000 g/Ha; evaluated after 13 days; read-out: Control of weed species IPOHE after post-emergence application (100=total damage to plant; 0=no damage to plant). An outline of the steps:
(§1)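 Plants grown 14 days in glasshouse (24/16 °C day/night, 14 h light, 65% humidity), then sprayed post-emergence with formula (I) formulated in IF50 and diluted in 0.25% or 1% Empicol ESC70 + 1% ammonium sulphate. Damage scored visually 13 days after spraying (0 = none, 100 = total).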

For a further test, the system named is Eleusine indica (ELEIN). The following applies: Eleusine indica, post-emergence, 312 h; application rate 1000 g/Ha; evaluated after 13 days; read-out: Control of weed species ELEIN after post-emergence application (100=total damage to plant; 0=no damage to plant). An outline of the steps: as §1
The test system of another test is Setaria faberi (SETFA). The following applies: Setaria faberi, post-emergence, 312 h; application rate 1000 g/Ha; evaluated after 13 days; read-out: Control of weed species SETFA after post-emergence application (100=total damage to plant; 0=no damage to plant). In a few lines:
as §1

The subject of test [2] is Echinochloa crus-galli (ECHCG). The following applies: Echinochloa crus-galli, post-emergence, 312 h; application rate 1000 g/Ha; evaluated after 13 days; read-out: Control of weed species ECHCG after post-emergence application (100=total damage to plant; 0=no damage to plant). An outline of the steps: as §1
Test [3] deals with Digitaria sanguinalis (DIGSA). The following applies: Digitaria sanguinalis, post-emergence, 312 h; application rate 1000 g/Ha; evaluated after 13 days; read-out: Control of weed species DIGSA after post-emergence application (100=total damage to plant; 0=no damage to plant). In a few lines:
as §1

Another test relates to Lolium perenne (LOLPE). The following applies: Lolium perenne, post-emergence, 312 h; application rate 1000 g/Ha; evaluated after 13 days; read-out: Control of weed species LOLPE after post-emergence application (100=total damage to plant; 0=no damage to plant). In a few lines:
as §1

For test [4], the system named is Amaranthus palmeri (AMAPA). The following applies: Amaranthus palmeri, post-emergence, 312 h; application rate 1000 g/Ha; evaluated after 13 days; read-out: Control of weed species AMAPA after post-emergence application (100=total damage to plant; 0=no damage to plant). An outline of the steps:
as §1

Test [5] concerns Euphorbia heterophylla (EPHHL). The following applies: Euphorbia heterophylla, post-emergence, 312 h; application rate 1000 g/Ha; evaluated after 13 days; read-out: Control of weed species EPHHL after post-emergence application (100=total damage to plant; 0=no damage to plant). An outline of the steps: as §1
The subject of test [6] is Chenopodium album (CHEAL). The following applies: Chenopodium album, post-emergence, 312 h; application rate 1000 g/Ha; evaluated after 13 days; read-out: Control of weed species CHEAL after post-emergence application (100=total damage to plant; 0=no damage to plant). An outline of the steps: as §1

Regarding `Cc1cc2ccccc2n[n+]1CCCS(=O)(=O)[O-]` [Compound A76], the pest or weed control at 1000 g/ha came out at 40% in test [1]; 60% in the test on Eleusine indica (ELEIN); 60% with Setaria faberi (SETFA); 60% in [2]; 60% in [3]; 30% with Lolium perenne (LOLPE). The pest or weed control at 1000 g/ha in test [4] was found to be 60%; in test [5] it was 50%; in test [6], 60%.
For `Cc1cc2ccccc2n[n+]1CCS(=O)(=O)[O-]` [Compound A77, 2-(3-methylcinnolin-2-ium-2-yl)ethanesulfonate], the pest or weed control at 1000 g/ha in test [1] amounted to 80%; in the test on Eleusine indica (ELEIN) it was 90%; in the test with Setaria faberi (SETFA) it was 30%; in test [2], 30%; in test [3], 90%; in the test on Lolium perenne (LOLPE), 40%. Further, the values for the pest or weed control at 1000 g/ha in test [4], in test [5] and in test [6] were 100%, 90% and 100%, respectively.
Consider `O=S(=O)(O)CC[n+]1ccc2ccc(-c3ccccc3)cc2n1` [Compound A78], for which the pest or weed control at 1000 g/ha worked out at 10% in test [1]; 70% in the test on Eleusine indica (ELEIN); 30% in the test with Setaria faberi (SETFA); 20% in test [2]; 50% in test [3]; 0% in the test on Lolium perenne (LOLPE). For the same compound, the pest or weed control at 1000 g/ha in test [4] amounted to 20%; in test [5] it was 40%; in test [6], 0%.
On to `O=S(=O)(O)CC[n+]1cc(C2CC2)c2ccccc2n1` [Compound A79], for which the pest or weed control at 1000 g/ha is 40% in test [1]; 10% with Eleusine indica (ELEIN); 30% in the test with Setaria faberi (SETFA); 20% in [2]; 20% in test [3]; 10% with Lolium perenne (LOLPE). Besides, the pest or weed control at 1000 g/ha in test [4] amounted to 60%; in test [5], 40%; in [6] it was 30%.
For the compound `O=S(=O)([O-])CC[n+]1ccc2ccc(C(F)(F)F)cc2n1` [Compound A80], the pest or weed control at 1000 g/ha in test [1] was determined as 0%; with Eleusine indica (ELEIN), 30%; in the test on Setaria faberi (SETFA) it was 30%; in test [2] it was 20%; in [3], 20%; in the test on Lolium perenne (LOLPE), 10%. Besides, the pest or weed control at 1000 g/ha in test [4] is 0%; in [5], 20%; in test [6], 20%.
Turning to `O=S(=O)([O-])CC[n+]1ccc2c(F)cccc2n1` [Compound A81], the pest or weed control at 1000 g/ha in [1] is 10%; in the test with Eleusine indica (ELEIN) it was 30%; in the test with Setaria faberi (SETFA) it was 20%; in test [2] it was 20%; in [3], 20%; with Lolium perenne (LOLPE), 20%. The pest or weed control at 1000 g/ha in [4] was 40%; in [5] it was 90%; in [6], 70%.
With `O=S(=O)([O-])CC[n+]1ccc2cc(F)ccc2n1` [Compound A82], the pest or weed control at 1000 g/ha in test [1] is 40%; in the test on Eleusine indica (ELEIN), 60%; in the test on Setaria faberi (SETFA), 30%; in test [2], 20%; in test [3], 40%; in the test with Lolium perenne (LOLPE), 30%. Besides, the values for the pest or weed control at 1000 g/ha in test [4], in [5] and in [6] were 90%, 60% and 70%, respectively.
For `O=S(=O)([O-])CC[n+]1ccc2ccc(F)cc2n1` [Compound A83], the pest or weed control at 1000 g/ha in test [1] was determined as 60%; with Eleusine indica (ELEIN) it was 80%; with Setaria faberi (SETFA) it was 50%; in test [2], 40%; in test [3], 50%; in the test with Lolium perenne (LOLPE), 50%. Besides, the pest or weed control at 1000 g/ha in [4], in test [5] and in test [6] was 100% each time.
As to `O=S(=O)([O-])CC[n+]1ccc2cccc(F)c2n1` [Compound A84], the pest or weed control at 1000 g/ha amounted to 50% in test [1]; 70% in the test with Eleusine indica (ELEIN); 50% in the test on Setaria faberi (SETFA); 20% in test [2]; 60% in test [3]; 50% in the test with Lolium perenne (LOLPE). For the same compound, the pest or weed control at 1000 g/ha came out at 100% in [4], 100% in test [5] and 70% in [6].
As for `COc1ccc2cc[n+](CCS(=O)(=O)[O-])nc2c1` [Compound A85], the pest or weed control at 1000 g/ha in test [1] is 70%; in the test with Eleusine indica (ELEIN), 40%; in the test on Setaria faberi (SETFA), 30%; in [2] it was 20%; in [3] it was 20%; with Lolium perenne (LOLPE), 20%. Besides, the results for the pest or weed control at 1000 g/ha in test [4], in test [5] and in test [6] were 100%, 80% and 100%, respectively.
`COc1cccc2cc[n+](CCS(=O)(=O)[O-])nc12` [Compound A86]: the pest or weed control at 1000 g/ha in [1] amounted to 90%; with Eleusine indica (ELEIN) it was 80%; with Setaria faberi (SETFA), 50%; in [2] it was 50%; in test [3], 40%; in the test with Lolium perenne (LOLPE) it was 60%. For the same compound, the pest or weed control at 1000 g/ha in [4] turned out to be 100%; in [5], 90%; in test [6], 100%.
Turning to `Cc1ccc2cc[n+](CCS(=O)(=O)[O-])nc2c1` [Compound A87], the pest or weed control at 1000 g/ha is 70% in [1]; 80% in the test on Eleusine indica (ELEIN); 50% with Setaria faberi (SETFA); 40% in [2]; 40% in [3]; 40% in the test with Lolium perenne (LOLPE). Besides, the pest or weed control at 1000 g/ha in test [4], in test [5] and in [6] was 100% throughout.
Regarding `O=S(=O)([O-])CC[n+]1ccc2cc(Cl)ccc2n1` [Compound A88], the pest or weed control at 1000 g/ha was found to be 20% in [1]; 50% in the test on Eleusine indica (ELEIN); 40% in the test on Setaria faberi (SETFA); 20% in test [2]; 50% in test [3]; 30% with Lolium perenne (LOLPE). Besides, the results for the pest or weed control at 1000 g/ha in test [4], in test [5] and in test [6] were 70%, 60% and 40%, respectively.
